{
  "source": "patent US9988680B2",
  "about": "“Non-natural nucleosides as theranostic agents” (Case Western Reserve University, priority 2011, dated 2018)",
  "key": {"[1]": {"tested_on": "MOLT4 cells", "test": "In situ click reaction with AlexaFluor488-azide, flow cytometry, MOLT4", "type": "cell-based", "conditions": "MOLT4, 10 μM, 2 days", "procedure": "(§1) In situ “click” reactions were performed using cells harvested after 2 days of treatment with DMSO, 3-Eth-5-NIdR (10, 40, or 100 μg mL^−1), 5-NIdR (100 μg mL^−1) or 5-ethynyl-2′-deoxyuridine (EdU) (10 μM). All cells were fixed with cold methanol. Under minimal lighting, cells were treated with 0.3 mL of saponin-based permeabilization and wash buffer for 45 min at 37° C. Click reactions were initiated by adding the click-iT reaction cocktail according to the instructions of the manufacturer (Invitrogen) followed by incubation at 37° C. for 90 min. Cells were then washed two times with saponin-based permeabilization and wash buffer. Cell pellets were dislodged using 0.5 mL solution of 10 μg mL^−1 PI and RNAase A in saponin-based permeabilization and wash buffer and then incubated for at least 15 min prior to flow cytometry analysis.\nMOLT4 cells were treated with DMSO, EdU (a “clickable” thymidine analogue), 5-NIdR, and 3-Eth-5-NIdR for 2 days and then washed with PBS to remove any nucleoside and/or nucleotide not incorporated into DNA. After fixation and permeabilization, the cells were treated with AlexaFluor488-azide and Cu(I) catalyst to commence “clicking” of any incorporated nonnatural nucleotide. Dual parameter flow cytometry applying PI staining coupled with detection of the AlexaFluor488 fluorophore was used to detect the “clicked” non-natural nucleotide in cellular DNA. […] This high amount of “clicked” DNA reflects transport of EdU into the cell, conversion to the corresponding nucleoside triphosphate, and incorporation into the DNA of replicating cells. MOLT4 cells treated with 10 μg mL^−1 3-Eth-5-NIdR also show appreciable levels of AlexaFluor488 stained DNA (2.8%) after 2 days of treatment. Furthermore, the amount of “clicked” DNA is dosedependent as treatment with 40 μg mL^−1 Eth-5-NIdR yields a […] increase in AlexaFluor488 staining (6.5%). Identical experiments were performed using the Loucy cell line that lacks TdT and thus is less sensitive to the cytotoxic effects of the non-natural nucleoside (vide inf ra). […] Treatment with 40 μg mL^−1 of 3-Eth-5-NIdR produces low levels of “clicked” DNA (0.02%). […] Once incorporated into DNA, the non-natural nucleotide inhibits cellular DNA replication and induces apoptosis. Finally, it should be emphasized that low levels (<0.5%) of AlexaFluor488 staining are detected in cells treated with 100 μg mL^−1 5-NIdR."}, "[2]": {"tested_on": "Loucy cells", "test": "In situ click reaction with AlexaFluor488-azide, flow cytometry, Loucy", "type": "cell-based", "conditions": "10 μM, 2 days", "procedure": "as §1\nMOLT4 cells were treated with DMSO, EdU (a “clickable” thymidine analogue), 5-NIdR, and 3-Eth-5-NIdR for 2 days and then washed with PBS to remove any nucleoside and/or nucleotide not incorporated into DNA. After fixation and permeabilization, the cells were treated with AlexaFluor488-azide and Cu(I) catalyst to commence “clicking” of any incorporated nonnatural nucleotide. […] Finally, it should be emphasized that low levels (<0.5%) of AlexaFluor488 staining are detected in cells treated with 100 μg mL^−1 5-NIdR."}, "[3]": {"molecular_target": "terminal deoxynucleotidyl transferase (TdT) (Bos taurus, UniProt P06526)", "sequence (P06526 whole entry)": "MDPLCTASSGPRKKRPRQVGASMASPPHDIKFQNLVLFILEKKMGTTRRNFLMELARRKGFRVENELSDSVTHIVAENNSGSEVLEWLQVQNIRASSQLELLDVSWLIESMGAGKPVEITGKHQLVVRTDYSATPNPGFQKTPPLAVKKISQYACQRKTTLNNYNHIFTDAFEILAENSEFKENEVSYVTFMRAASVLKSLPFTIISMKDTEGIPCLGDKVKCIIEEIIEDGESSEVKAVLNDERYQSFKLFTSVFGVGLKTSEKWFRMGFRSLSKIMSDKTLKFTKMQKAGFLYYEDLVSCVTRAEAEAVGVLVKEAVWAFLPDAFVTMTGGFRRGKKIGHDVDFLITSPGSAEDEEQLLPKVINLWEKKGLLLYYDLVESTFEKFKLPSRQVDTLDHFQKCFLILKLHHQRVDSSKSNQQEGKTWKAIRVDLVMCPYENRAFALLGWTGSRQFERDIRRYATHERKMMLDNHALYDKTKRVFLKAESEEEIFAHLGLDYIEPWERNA", "test": "Incorporation of natural and non-natural nucleotides by TdT (polymerization assay, Michaelis-Menten kinetics)", "type": "biochemical", "conditions": "incorporation by TdT; 6 units TdT, 1.5 μM single-stranded DNA substrate", "procedure": "All enzymatic assays were performed as previously described. […] Reactions were quenched with 200 Mm EDTA at variable times (5-600 s) and analyzed using denaturing gel electrophoresis. Time courses in product formation were fitted using eq 1: Y=mt+b(1) (1)\nwhere y is the amount of product, m is the rate of the reaction, t is time, and b is the Y-intercept. Km and Vmax values were determined by fits of the data points to the Michaelis-Menten equation: […]\nwhere Vmax is the maximal rate of nucleotide incorporation, Km is the Michaelis constant for dNTP, and [dNTP] is the concentration of nucleotide substrate. The IC50 value for 3-Eth-5-NITP was obtained using a nonlinear regression curve fit of the data to eq 3:\nThe biological function of TdT is to expand immunological diversity by randomly incorporating dNTPs into single-stranded DNA during V(D)J recombination. […] TdT also utilizes nucleotide analogues including 2′,3′-dideoxynucleotides, dinucleoside 5′,5′-tetraphosphates, and intrinsically fluorescent nucleotide analogues. In this report, we tested if TdT also incorporates indolyl-2′-deoxyribose-5′-triphosphates that bear non-natural moieties such as ethynyl and nitro groups at the 3- and 5-position, respectively, of the indole base. […] Aliquots of the reaction were quenched with EDTA at variable time points, and the polymerization reactions were then subjected to denaturing polyacrylamide gel electrophoresis to separate extended primers from unreacted substrate.\nTime courses in product formation were generated using pseudo-first order reaction conditions in which 6 units of TdT were incubated with 1.5 μM DNA substrate and mixed with variable concentrations of non-natural nucleotide (0.05-50 μM). Each time course was fit to an equation for a straight line to define the rate of nucleotide incorporation (data not shown)."}},
  "data": [
    {"smiles": "C#Cc1cn([C@H]2C[C@H](O)[C@@H](CO)O2)c(=O)[nH]c1=O", "note": "[EdU, 5-ethynyl-2′-deoxyuridine, reference compound]", "values": [
      {"measurement": "AlexaFluor488 stained (clicked) DNA", "setting": "[1]", "result": 36.1, "unit": "%"},
      {"measurement": "AlexaFluor488 staining (clicked DNA)", "setting": "[2]", "result": 59.2, "unit": "%"}
    ]},
    {"smiles": "Nc1ncnc2c1ncn2[C@H]1C[C@H](O)[C@@H](COP(=O)(O)OP(=O)(O)OP(=O)(O)O)O1", "note": "[dATP]", "values": [
      {"measurement": "Km", "setting": "[3]", "result": "1.5 ± 0.4", "unit": "µM"},
      {"measurement": "Vmax", "setting": "[3]", "result": "3.3 ± 0.3", "unit": "nM/s"}
    ]},
    {"smiles": "Nc1nc2c(ncn2[C@H]2C[C@H](O)[C@@H](COP(=O)(O)OP(=O)(O)OP(=O)(O)O)O2)c(=O)[nH]1", "note": "[dGTP]", "values": [
      {"measurement": "Km", "setting": "[3]", "result": "8 ± 0.9", "unit": "µM"},
      {"measurement": "Vmax", "setting": "[3]", "result": "29.2 ± 1.1", "unit": "nM/s"}
    ]}
  ]
}
